Reference: ChEMBL document CHEMBL1146958, “The SAR of 4-substituted (6,6-bicyclic) piperidine cathepsin S inhibitors” (Bioorg Med Chem Lett, 2006)

Target: T1, Alpha-1A adrenergic receptor (Homo sapiens) (UniProt P35348)
T1 sequence (whole entry): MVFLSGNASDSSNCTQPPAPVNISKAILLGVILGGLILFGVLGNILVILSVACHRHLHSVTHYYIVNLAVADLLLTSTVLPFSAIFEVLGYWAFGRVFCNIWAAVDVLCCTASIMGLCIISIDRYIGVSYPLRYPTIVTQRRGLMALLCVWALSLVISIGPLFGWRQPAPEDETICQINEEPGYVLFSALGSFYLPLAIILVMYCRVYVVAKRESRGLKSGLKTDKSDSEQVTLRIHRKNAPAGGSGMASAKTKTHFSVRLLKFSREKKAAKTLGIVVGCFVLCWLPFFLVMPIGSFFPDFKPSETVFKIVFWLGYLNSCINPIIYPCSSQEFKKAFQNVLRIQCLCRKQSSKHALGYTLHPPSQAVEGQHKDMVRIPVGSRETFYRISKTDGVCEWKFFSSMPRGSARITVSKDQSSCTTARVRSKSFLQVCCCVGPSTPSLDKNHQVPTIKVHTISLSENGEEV
Test: Inhibition of alpha 1A adrenergic receptor at 1 uM

| Structure (SMILES) | inhibition |
| --- | --- |
| CS(=O)(=O)N1CCc2c(c(-c3ccc(C(F)(F)F)cc3)nn2CC(O)CN2CCC(N3C(=O)NCc4cc(Cl)ccc43)CC2)C1 (stereo unspecified) | 40% |
| CS(=O)(=O)N1CCc2c(c(-c3ccc(C(F)(F)F)cc3)nn2CCCN2CCC(N3C(=O)COc4ccccc43)CC2)C1 | 72% |
| CS(=O)(=O)N1CCc2c(c(-c3ccc(C(F)(F)F)cc3)nn2CC(O)CN2CCC(N3C(=O)COc4ccccc43)CC2)C1 (stereo unspecified) | 60% |
| CS(=O)(=O)N1CCc2c(c(-c3ccc(C(F)(F)F)cc3)nn2CC(O)CN2CCC(N3C(=O)CCc4cc(Cl)ccc43)CC2)C1 (stereo unspecified) | < 10% |

Target: Cathepsin S (Homo sapiens, UniProt P25774)
Sequence (P25774 whole entry): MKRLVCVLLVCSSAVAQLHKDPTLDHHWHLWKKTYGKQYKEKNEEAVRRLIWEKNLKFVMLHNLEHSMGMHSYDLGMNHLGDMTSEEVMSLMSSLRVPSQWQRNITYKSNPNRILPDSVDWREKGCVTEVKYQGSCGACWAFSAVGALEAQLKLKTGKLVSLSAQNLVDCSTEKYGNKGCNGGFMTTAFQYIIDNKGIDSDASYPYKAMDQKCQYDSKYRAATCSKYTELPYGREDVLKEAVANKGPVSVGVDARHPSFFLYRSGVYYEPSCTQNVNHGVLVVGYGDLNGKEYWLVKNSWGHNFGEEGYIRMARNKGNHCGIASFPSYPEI
Description: Inhibition of cathepsin S

| Structure (SMILES) | IC50 |
| --- | --- |
| CS(=O)(=O)N1CCc2c(c(-c3ccc(C(F)(F)F)cc3)nn2CC(O)CN2CCC(N3C(=O)OCc4ccccc43)CC2)C1 (stereo unspecified) | 88 nM |
| CS(=O)(=O)N1CCc2c(c(-c3ccc(C(F)(F)F)cc3)nn2CC(O)CN2CCN(c3ccnc4ccccc34)CC2)C1 (stereo unspecified) | 1700 nM |
| CS(=O)(=O)N1CCc2c(c(-c3ccc(Br)cc3)nn2CC(O)CN2CCC(N3c4ccc(Cl)cc4CNS3(=O)=O)CC2)C1 (stereo unspecified) | 75 nM |
| CS(=O)(=O)N1CCc2c(c(-c3ccc(C(F)(F)F)cc3)nn2CC(O)CN2CCC(N3C(=O)COc4ccccc43)CC2)C1 (stereo unspecified) | 28 nM |
| CS(=O)(=O)N1CCc2c(c(-c3ccc(Br)cc3)nn2CC(O)CN2CCC(N3CCCc4ccccc43)CC2)C1 (stereo unspecified) | 322 nM |
| CS(=O)(=O)N1CCc2c(c(-c3ccc(Br)cc3)nn2CCCN2CCC(N3C(=O)COc4ccccc43)CC2)C1 | 60 nM |
| CS(=O)(=O)N1CCc2c(c(-c3ccc(Br)cc3)nn2CC(O)CN2CCC(N3CCc4ccccc4C3)CC2)C1 (stereo unspecified) | 1780 nM |
